Data reported in PMC8365602 (Journal of Medicinal Chemistry, 2021).
Where two headings read alike, the source gives them in different places.

What was measured:
[1] = biological target: T1, 5-LOX (Homo sapiens, UniProt P09917); assay: Cell-free 5-LOX activity (isolated human recombinant enzyme)
T1 sequence (P09917 1-674): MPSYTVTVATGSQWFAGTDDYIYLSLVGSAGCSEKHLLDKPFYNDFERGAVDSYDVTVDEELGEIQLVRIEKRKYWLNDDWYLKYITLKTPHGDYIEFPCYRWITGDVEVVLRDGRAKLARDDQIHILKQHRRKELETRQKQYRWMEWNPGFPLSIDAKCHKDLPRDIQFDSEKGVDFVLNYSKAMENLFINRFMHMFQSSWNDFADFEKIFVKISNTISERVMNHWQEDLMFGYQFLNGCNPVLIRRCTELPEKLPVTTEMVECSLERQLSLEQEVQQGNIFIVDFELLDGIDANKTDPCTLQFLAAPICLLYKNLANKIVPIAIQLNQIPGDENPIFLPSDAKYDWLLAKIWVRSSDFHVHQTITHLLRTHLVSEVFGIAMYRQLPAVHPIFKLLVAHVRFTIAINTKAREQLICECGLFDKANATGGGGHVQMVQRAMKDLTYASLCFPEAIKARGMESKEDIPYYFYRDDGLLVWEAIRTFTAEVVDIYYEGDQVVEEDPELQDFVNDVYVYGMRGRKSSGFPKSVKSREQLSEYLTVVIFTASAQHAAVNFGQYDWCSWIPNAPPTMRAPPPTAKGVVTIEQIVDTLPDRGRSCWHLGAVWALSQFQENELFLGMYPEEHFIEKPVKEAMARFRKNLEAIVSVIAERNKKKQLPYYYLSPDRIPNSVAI
Description: Human recombinant 5-LOX was expressed in E. coli Bl21 (DE3) cells that were transformed with pT3–5LOX (wt 5-LOX), 5-LOX_3W (triple mutation of Trp102Ala/Trp13Ala/Trp75Ala), or 5-LOX_R (single mutant of the Arg101Asp plasmid) and purified on an ATP-agarose column (Econo-Pac, Bio-Rad, Hercules, CA) by affinity chromatography.[6],[75]
Purified 5-LOX (0.5 μg in PBS pH 7.4 containing 1 mM EDTA and 1 mM ATP) was preincubated with the vehicle (DMSO) or test compounds for 10 min and prewarmed at 37 °C.

[2] = biological target: T1, 5-LOX; assay: 5-LOX product formation in activated PMNL;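 further: freshly isolated human PMNL in PBS pH 7.4 plus glucose, preincubated 10 min at 37 °C with compound, 5-LOX products (all-trans LTB4 isomers, 5-HETE) quantified by RP-HPLC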
[3] = read-out: 5-LOX enzyme residual activity at 1 µM (Table S1)
[4] = PMNL, read-out: 5-LOX PMNL residual activity at 3 µM (Table S1)
[5] = read-out: 5-LOX enzyme residual activity at 1 μM
[6] = PMNL, read-out: 5-LOX PMNL residual activity at 3 μM
[7] = read-out: 5-LOX enzyme IC50, isolated human 5-LOX, cell-free, mean ± SEM
[8] = read-out: 5-LOX PMNL IC50, 5-LOX product formation in activated PMNL, mean ± SEM

Row | IC50 [1] [µM] | remaining activity at 1 µM [1, 3] [%] | IC50 [2] [µM] | remaining activity at 3 µM [2, 4] [%] | remaining activity at 1 µM ([2]; PMNL, read-out: 5-LOX PMNL residual activity at 1 µM (Table S1, cell marked b)) [%] | remaining activity at 1 µM [1, 5] [%] | IC50 [1, 7] [µM] | Compound | remaining activity at 3 µM [2, 6] [%] | IC50 [2, 8] [µM]
1 | > 1 | 72.9 ± 5.6 | > 3 | 110 ± 10.7 | – | – | – | Cc1c(C=O)c(O)c(Cl)c2c1O[C@](C)(CCC[C@H](C)CCC[C@H](C)CCCC(C)C)CC2 [Compound 2, (R)-5-Chloro-6-hydroxy-2,8-dimethyl-2-((4R,8R)-4,8,12-trimethyltridecyl)chromane-7-carbaldehyde] | – | –
2 | > 1 | 94.6 ± 3.5 | > 3 | 92.2 ± 6.3 | – | – | – | Cc1cc(O)c(C=O)c2c1O[C@](C)(CCC[C@H](C)CCC[C@H](C)CCCC(C)C)CC2 [Compound 3] | – | –
3 | > 1 | 77.3 ± 17.2 | > 3 | 91.9 ± 5.3 | – | – | – | COCOc1cc(C)c2c(c1C=O)CC[C@@](C)(CCC[C@H](C)CCC[C@H](C)CCCC(C)C)O2 [Compound 4, (R)-6-(Methoxymethoxy)-2,8-dimethyl-2-((4R,8R)-4,8,12-trimethyltridecyl)chromane-5-carbaldehyde] | – | –
4 | > 1 | 54.6 ± 5.8 | > 3 | 80.8 ± 0.6 | – | – | – | Cc1cc(O)c(C(=O)O)c2c1O[C@](C)(CCC[C@H](C)CCC[C@H](C)CCCC(C)C)CC2 [Compound 5] | – | –
5 | > 1 | 74.5 ± 4.3 | > 3 | 87.1 ± 8 | – | – | – | CC(C)=CCC/C(C)=C/CC/C(C)=C/CC[C@]1(C)CCc2c(C=O)c(O)cc(C)c2O1 [Compound 7] | – | –
6 | > 1 | 59 ± 5.9 | > 3 | 79.2 ± 16.7 | – | – | – | CC(C)=CCC/C(C)=C/CC/C(C)=C/CC[C@]1(C)CCc2c(C=O)c(O)c(Br)c(C)c2O1 [Compound 8] | – | –
7 | 0.12 ± 0.05 | 0.4 ± 0.3 | 0.57 ± 0.09 | – | 17.6 ± 1.3 | – | – | C/C(=C\CC/C(C)=C/CC[C@]1(C)CCc2cc(O)cc(C)c2O1)CC/C=C(/C=O)CO [Compound 11] | – | –
8 | – | – | – | – | – | 51.4 ± 3.1 | – | Cc1cc(O)cc2c1O[C@](C)(CCCC(C)CCCC(C)CCCC(C)C(=O)O)CC2 (stereo partly shown) [Compound 12b] | 40.8 ± 3.5 | –
9 | – | – | – | – | – | 4.1 ± 3.6 | – | C/C(=C\CC/C(C)=C/CC[C@]1(C)CCc2cc(O)c(C)c(C)c2O1)CC/C=C(\C)C(=O)O [Compound 13c] | 1.6 ± 1.6 | –
10 | – | – | – | – | – | 47.3 ± 1.1 | 0.92 ± 0.04 | C/C(=C\CC[C@]1(C)CCc2cc(O)cc(C)c2O1)CC/C=C/C(=O)O [Compound 16, (2E,6E)-9-[(2R)-6-Hydroxy-2,8-dimethyl-3,4-dihydro-2H-1-benzopyran-2-yl]-6-methylnona-2,6-dienoic Acid] | 77 ± 3.9 | > 3
11 | – | – | – | – | – | 65.3 ± 25.2 | > 1 | Cc1cc(O)cc2c1O[C@](C)(CC/C=C/C(=O)O)CC2 [Compound 17, (2E)-5-[(2R)-6-Hydroxy-2,8-dimethyl-3,4-dihydro-2H-1-benzopyran-2-yl]pent-2-enoic Acid] | 101 ± 5.2 | > 3
12 | – | – | – | – | – | 56.4 ± 18.3 | > 1 | C/C(=C\CC[C@]1(C)CCc2cc(O)cc(C)c2O1)C(=O)O [Compound 18, (R,E)-5-(6-Hydroxy-2,8-dimethylchroman-2-yl)-2-methylpent-2-enoic Acid] | 88.8 ± 6.4 | > 3
13 | – | – | – | – | – | 98.1 ± 1.3 | > 1 | COc1cc(C)c2c(c1)CC[C@@](C)(CC/C=C(\C)CC/C=C(\C)CCCC(C)C(=O)O)O2 (stereo partly drawn) [Compound 20, (6E,10E)-13-((R)-6-Methoxy-2,8-dimethylchroman-2-yl)-2,6,10-trimethyltrideca-6,10-dienoic Acid] | – | –
14 | – | – | – | – | – | 88.7 ± 4.3 | > 1 | COC(=O)C(C)CCC/C(C)=C/CC/C(C)=C/CC[C@]1(C)CCc2cc(OC)cc(C)c2O1 (stereo partly drawn) [Compound 22, (6E,10E)-Methyl-13-((R)-6-methoxy-2,8-dimethylchroman-2-yl)-2,6,10-trimethyltrideca-6,10-dienoate] | – | –
15 | – | – | – | – | – | 12.2 ± 4.1 | 0.38 ± 0.11 | C/C(=C\CC[C@]1(C)CCc2cc(O)cc(C)c2O1)CCC(O)C(C)(O)CCC=C(CO)CO (stereo partly shown) [Compound 30] | – | –
16 | – | – | – | – | – | 99.8 ± 5.6 | > 1 | C/C(=C\CC/C(C)=C/CC[C@]1(C)CCc2cc(OCC(N)=O)cc(C)c2O1)CCC=C(CO)CO [Compound 32, 2-(((R)-2-((3E,7E)-13-Hydroxy-12-(hydroxymethyl)-4,8-dimethyltrideca-3,7,11-trien-1-yl)-2,8-dimethylchroman-6-yl)oxy)acetamide] | – | –
17 | 0.21 ± 0.14 | – | – | – | – | 12.7 ± 9.3 | – | COc1ccc(C2OCC(=CCC/C(C)=C/CC/C(C)=C/CC[C@]3(C)CCc4cc(O)cc(C)c4O3)CO2)cc1OC (stereo partly shown) [Compound 44] | – | –
18 | > 1 | – | – | – | – | 83 ± 7.6 | – | COc1ccc(C2OCC(=CCC/C(C)=C/CC/C(C)=C/CC[C@]3(C)CCc4cc(OCCCC(=O)O)cc(C)c4O3)CO2)cc1OC (stereo partly drawn) [Compound 45, 4-(((2R)-2-((3E,7E)-11-(2-(3,4-Dimethoxyphenyl)-1,3-dioxan-5-ylidene)-4,8-dimethylundeca-3,7-dien-1-yl)-2,8-dimethylchroman-6-yl)oxy)butanoic Acid] | – | –

Row | Compound | IC50 [1] [µM] | remaining activity at 1 µM [1, 3] [%] | IC50 [2] [µM] | remaining activity at 3 µM [2, 4] [%] | remaining activity at 1 µM ([2]; PMNL, read-out: 5-LOX PMNL residual activity at 1 µM (Table S1, cell marked b)) [%] | remaining activity at 1 µM [1, 5] [%] | IC50 [1, 7] [µM] | remaining activity at 3 µM [2, 6] [%] | IC50 [2, 8] [µM]
19 | C/C(=C\CC/C(C)=C/CC[C@]1(C)CCc2cc(O)cc(C)c2O1)CC/C=C/C(=O)O [Compound 14, (2E,6E,10E)-13-[(2R)-6-Hydroxy-2,8-dimethyl-3,4-dihydro-2H-1-benzopyran-2-yl]-6,10-dimethyltrideca-2,6,10-trienoic Acid] | – | – | – | – | – | 24.5 ± 2.8 | 0.44 ± 0.08 | 26.9 ± 4.8 | 2.2 ± 0.14
20 | C/C(=C\CC[C@]1(C)CCc2c(C)c(O)c(C)c(C)c2O1)CC/C=C(\C)CCC(=O)O [Compound 15a, (4E,8E)-11-((R)-6-Hydroxy-2,5,7,8-tetramethylchroman-2-yl)-4,8-dimethylundeca-4,8-dienoic Acid] | – | – | – | – | – | 11.5 ± 1.8 | 0.44 ± 0.07 | 10.6 ± 5.8 | 0.45 ± 0.12
21 | C/C(=C\CC[C@]1(C)CCc2cc(O)cc(C)c2O1)CC/C=C(\C)CCC(=O)O [Compound 15b, (4E,8E)-11-((R)-6-Hydroxy-2,8-dimethylchroman-2-yl)-4,8-dimethylundeca-4,8-dienoic Acid] | – | – | – | – | – | 28.8 ± 5.2 | 0.47 ± 0.14 | 32 ± 9.8 | 2.19 ± 0.4
22 | C/C(=C\CC[C@]1(C)CCc2c(C)c(O)cc(C)c2O1)CC/C=C(\C)CCCC(C)C(=O)O (stereo partly drawn) [Compound 19a, (6E,10E)-13-((R)-6-Hydroxy-2,5,8-trimethylchroman-2-yl)-2,6,10-trimethyltrideca-6,10-dienoic Acid] | – | – | – | – | – | 41.2 ± 6.2 | 0.81 ± 0.08 | 14.2 ± 6.5 | 0.81 ± 0.33
23 | C/C(=C\CC[C@]1(C)CCc2cc(O)cc(C)c2O1)CC/C=C(\C)CCCC(C)C(=O)O (stereo partly drawn) [Compound 19b, (6E,10E)-13-((R)-6-Hydroxy-2,8-dimethylchroman-2-yl)-2,6,10-trimethyltrideca-6,10-dienoic Acid] | – | – | – | – | – | 7.4 ± 2.7 | – | 3.8 ± 0.8 | 0.61 ± 0.15
24 | COC(=O)C(C)CCC/C(C)=C/CC/C(C)=C/CC[C@]1(C)CCc2cc(O)cc(C)c2O1 (stereo partly drawn) [Compound 21, (6E,10E)-Methyl-13-((R)-6-hydroxy-2,8-dimethylchroman-2-yl)-2,6,10-trimethyltrideca-6,10-dienoate] | – | – | – | – | – | 5.8 ± 1.7 | 0.17 ± 0.01 | 14.1 ± 6 | 1.14 ± 0.39
